In PubChem BioAssay (NCI):
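1) Cells in 96-well plates. 2) Compound, 48 h, 5 concentrations. 3) Linear interpolation between surrounding doses. 4) Unreached endpoint = highest concentration. At the GI50, growth is halved. TGI: total growth inhibition.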

Columns and labels:
Assay in all cases: inhibition of tumour cell growth, NCI panel, 48 h
786-0 renal = tested on: 786-0 renal
A498 renal = tested on: A498 renal
A549 NSCLC = tested on: A549 NSCLC
ACHN renal = tested on: ACHN renal
BT-549 breast = tested on: BT-549 breast
CAKI-1 renal = tested on: CAKI-1 renal
CCRF-CEM leukemia = tested on: CCRF-CEM leukemia
COLO 205 colon = tested on: COLO 205 colon
DU-145 prostate = tested on: DU-145 prostate
EKVX NSCLC = tested on: EKVX NSCLC
HCC-2998 colon = tested on: HCC-2998 colon
HCT-116 colon = tested on: HCT-116 colon
HCT-15 colon = tested on: HCT-15 colon
HL-60(TB) leukemia = tested on: HL-60(TB) leukemia
HOP-62 NSCLC = tested on: HOP-62 NSCLC
HS 578T breast = tested on: HS 578T breast
HT29 colon = tested on: HT29 colon
IGROV1 ovarian = tested on: IGROV1 ovarian
K-562 leukemia = tested on: K-562 leukemia
KM12 colon = tested on: KM12 colon
LOX IMVI melanoma = tested on: LOX IMVI melanoma
M14 melanoma = tested on: M14 melanoma
MALME-3M melanoma = tested on: MALME-3M melanoma
MCF7 breast = tested on: MCF7 breast
MDA-MB-231 breast = tested on: MDA-MB-231 breast
MDA-MB-435 = tested on: MDA-MB-435
MOLT-4 leukemia = tested on: MOLT-4 leukemia
NCI-H226 lung = tested on: NCI-H226 lung
NCI-H23 lung = tested on: NCI-H23 lung
NCI-H460 lung = tested on: NCI-H460 lung
NCI-H522 lung = tested on: NCI-H522 lung
NCI/ADR-RES ovarian = tested on: NCI/ADR-RES ovarian
OVCAR-3 ovarian = tested on: OVCAR-3 ovarian
OVCAR-4 ovarian = tested on: OVCAR-4 ovarian
OVCAR-5 ovarian = tested on: OVCAR-5 ovarian
OVCAR-8 ovarian = tested on: OVCAR-8 ovarian
RPMI-8226 leukemia = tested on: RPMI-8226 leukemia
RXF 393 renal = tested on: RXF 393 renal
SF-268 CNS = tested on: SF-268 CNS
SF-295 CNS = tested on: SF-295 CNS
SF-539 CNS = tested on: SF-539 CNS
SK-MEL-2 melanoma = tested on: SK-MEL-2 melanoma
SK-MEL-28 melanoma = tested on: SK-MEL-28 melanoma
SK-MEL-5 melanoma = tested on: SK-MEL-5 melanoma
SK-OV-3 ovarian = tested on: SK-OV-3 ovarian
SN12C renal = tested on: SN12C renal
SNB-19 CNS = tested on: SNB-19 CNS
SNB-75 CNS = tested on: SNB-75 CNS
SR leukemia = tested on: SR leukemia
SW-620 colon = tested on: SW-620 colon
T-47D breast = tested on: T-47D breast
TK-10 renal = tested on: TK-10 renal
U251 CNS = tested on: U251 CNS
UACC-257 melanoma = tested on: UACC-257 melanoma
UACC-62 melanoma = tested on: UACC-62 melanoma
UO-31 renal = tested on: UO-31 renal

CCNC(=O)Oc1ccc(/C(=C(/C)Cc2ccc(OC)cc2)c2ccc(OCCN(CC)CC)cc2)cc1
GI50 (786-0 renal): 1390 nM
TGI (786-0 renal): 2880 nM
GI50 (A498 renal): 2580 nM
TGI (A498 renal): 11100 nM
GI50 (A549 NSCLC): 1870 nM
TGI (A549 NSCLC): 3620 nM
GI50 (ACHN renal): 1690 nM
TGI (ACHN renal): 3180 nM
GI50 (BT-549 breast): 1730 nM
TGI (BT-549 breast): 4160 nM
GI50 (CAKI-1 renal): 1640 nM
TGI (CAKI-1 renal): 3840 nM
GI50 (CCRF-CEM leukemia): 2660 nM
TGI (CCRF-CEM leukemia): 7960 nM
GI50 (COLO 205 colon): 1940 nM
TGI (COLO 205 colon): 3820 nM
GI50 (DU-145 prostate): 2360 nM
TGI (DU-145 prostate): 5830 nM
GI50 (EKVX NSCLC): 1700 nM
TGI (EKVX NSCLC): 5030 nM
GI50 (HCC-2998 colon): 1700 nM
TGI (HCC-2998 colon): 3290 nM
GI50 (HCT-116 colon): 1570 nM
TGI (HCT-116 colon): 3110 nM
GI50 (HCT-15 colon): 1510 nM
TGI (HCT-15 colon): 3060 nM
GI50 (HL-60(TB) leukemia): 1940 nM
TGI (HL-60(TB) leukemia): 4560 nM
GI50 (HOP-62 NSCLC): 1680 nM
TGI (HOP-62 NSCLC): 4140 nM
GI50 (HS 578T breast): 2180 nM
TGI (HS 578T breast): 5160 nM
GI50 (HT29 colon): 2020 nM
TGI (HT29 colon): 3960 nM
GI50 (IGROV1 ovarian): 2590 nM
TGI (IGROV1 ovarian): 6870 nM
GI50 (K-562 leukemia): 2000 nM
TGI (K-562 leukemia): 6090 nM
GI50 (KM12 colon): 2010 nM
TGI (KM12 colon): 4580 nM
GI50 (LOX IMVI melanoma): 1660 nM
TGI (LOX IMVI melanoma): 3220 nM
GI50 (M14 melanoma): 1720 nM
TGI (M14 melanoma): 3620 nM
GI50 (MALME-3M melanoma): 1640 nM
TGI (MALME-3M melanoma): 3220 nM
GI50 (MCF7 breast): 621 nM
TGI (MCF7 breast): 2410 nM
GI50 (MDA-MB-231 breast): 1780 nM
TGI (MDA-MB-231 breast): 3380 nM
GI50 (MDA-MB-435): 1670 nM
TGI (MDA-MB-435): 3180 nM
GI50 (MOLT-4 leukemia): 2640 nM
TGI (MOLT-4 leukemia): 9710 nM
GI50 (NCI-H226 lung): 2990 nM
TGI (NCI-H226 lung): 12600 nM
GI50 (NCI-H23 lung): 2090 nM
TGI (NCI-H23 lung): 5350 nM
GI50 (NCI-H460 lung): 1850 nM
TGI (NCI-H460 lung): 3500 nM
GI50 (NCI-H522 lung): 2160 nM
TGI (NCI-H522 lung): 4170 nM
GI50 (NCI/ADR-RES ovarian): 2990 nM
TGI (NCI/ADR-RES ovarian): 11500 nM
GI50 (OVCAR-3 ovarian): 1690 nM
TGI (OVCAR-3 ovarian): 3340 nM
GI50 (OVCAR-4 ovarian): 2310 nM
TGI (OVCAR-4 ovarian): 7840 nM
GI50 (OVCAR-5 ovarian): 3420 nM
TGI (OVCAR-5 ovarian): 12800 nM
GI50 (OVCAR-8 ovarian): 1800 nM
TGI (OVCAR-8 ovarian): 3590 nM
GI50 (RPMI-8226 leukemia): 1990 nM
TGI (RPMI-8226 leukemia): 4500 nM
GI50 (RXF 393 renal): 1900 nM
TGI (RXF 393 renal): 3620 nM
GI50 (SF-268 CNS): 1980 nM
TGI (SF-268 CNS): 4750 nM
GI50 (SF-295 CNS): 1660 nM
TGI (SF-295 CNS): 3250 nM
GI50 (SF-539 CNS): 1610 nM
TGI (SF-539 CNS): 3250 nM
GI50 (SK-MEL-2 melanoma): 1850 nM
TGI (SK-MEL-2 melanoma): 3620 nM
GI50 (SK-MEL-28 melanoma): 1760 nM
TGI (SK-MEL-28 melanoma): 3530 nM
GI50 (SK-MEL-5 melanoma): 1550 nM
TGI (SK-MEL-5 melanoma): 2930 nM
GI50 (SK-OV-3 ovarian): 2840 nM
TGI (SK-OV-3 ovarian): 13300 nM
GI50 (SN12C renal): 1930 nM
TGI (SN12C renal): 3820 nM
GI50 (SNB-19 CNS): 2570 nM
TGI (SNB-19 CNS): 6160 nM
GI50 (SNB-75 CNS): 1690 nM
TGI (SNB-75 CNS): 4930 nM
GI50 (SR leukemia): 1760 nM
TGI (SR leukemia): 5960 nM
GI50 (SW-620 colon): 1810 nM
TGI (SW-620 colon): 3460 nM
GI50 (T-47D breast): 1300 nM
TGI (T-47D breast): 4230 nM
GI50 (TK-10 renal): 2030 nM
TGI (TK-10 renal): 6050 nM
GI50 (U251 CNS): 1730 nM
TGI (U251 CNS): 3200 nM
GI50 (UACC-257 melanoma): 1790 nM
TGI (UACC-257 melanoma): 3420 nM
GI50 (UACC-62 melanoma): 1860 nM
TGI (UACC-62 melanoma): 3380 nM
GI50 (UO-31 renal): 1520 nM
TGI (UO-31 renal): 3020 nM
